The test relates to NCI-H719 tumor spheroids, viability. Briefly: Anticancer human tumor NCI-H719 cell line growth inhibition.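 For IC50: spheroids exposed to compounds for seven days.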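 For viability, T/C: spheroids exposed to compounds for seven days; percent viability relative to DMSO vehicle control as 100%.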 As to conditions: spheroids with HUVEC and MSC; for viability, T/C: stronger effect = lower value. The source says: Multicellular complex tumor spheroid response to DNA repair inhibitors in combination with DNA-damaging drugs
This study explores the anticancer activities of DNA-damaging drugs and inhibitors of DNA damage repair, both as single agents and in combinations. Complex tumor spheroids comprised of malignant cells, endothelial cells and mesenchymal stem cells served as an in vitro model for human solid tumors. This model system incorporates physiologically relevant features and patient-derived or established malignant cell lines with clinically relevant genetic alterations from many tumor types. Twenty-six patient-derived or established malignant cell lines were evaluated representing sarcoma, melanoma, small cell lung cancer (SCLC), non-small cell lung cancer (NSCLC), as well as bladder, ovarian and pancreatic cancers. The concentration ranges selected for each drug and investigational agent were based upon clinically achievable concentrations if the clinical Cmax of the agent was known.
Compounds. The drugs and compounds olaparib (NSC753686), talazoparib (NSC767125), berzosertib (NSC777718), elimusertib (NSC800525), nedisertib (NSC802822), VX-984 (NSC792969), AZD-1390 (NSC803789), temozolomide (NSC362856), topotecan (NSC609699), trabectedin (NSC813783), staurosporine (NSC755774), and gemcitabine (NSC613327) were obtained from the National Cancer Institute (NCI) Developmental Therapeutics Program Chemical Repository. The FDA-approved anticancer drug set is available from the Developmental Therapeutics Program at https://dtp.cancer.gov/organization/dscb/obtaining/available_plates.htm. […] The stock solutions were prepared in dimethyl sulfoxide (DMSO, Sigma-Aldrich, St. Louis, MO, cat. D2650) at 400-fold the tested concentration and stored at -70 degrees C. Prior to their use, the stock solutions were diluted in fresh medium and the final DMSO concentration in the assay was 0.25% (v/v). All drugs and investigational agents were tested over a range starting from a high concentration at or near the clinical Cmax and decreasing in half-log increments. If the clinical Cmax for an agent had not been determined, the highest concentration tested was 10 microM.
Cell Lines. The patient-derived cancer cell (PDC) lines: 156681-154-R-J1-PDC, 283228-195-R-J1-PDC, 287954-098-R-J1-PDC, 292921-168-R-J2-PDC, 349418-098-R-PDC, 425362-245-T-J1-PDC, 556581-035-R-J1-PDC, and BL0293-F563-PDC were received from the NCI Patient-Derived Models Repository (PDMR, https://pdmr.cancer.gov). The established cell lines HS-SY-2 (RRID:CVCL_8719), MPNST, and SYO-1 (RRID:CVCL_7146) were obtained from the Sloan Kettering Institute. The alveolar soft parts sarcoma cell line ASPS-1 (RRID:CVCL_S738) was established at the NCI and grown from internal seed stocks. The following established cell lines were purchased from the American Type Culture Collection (ATCC, Manassas, VA): G-401 (ATCC, cat. CRL-1441, RRID:CVCL_0270), SW982 (ATCC, cat. HTB-93, RRID:CVCL_1734), VA-ES-BJ (ATCC, cat. CRL-2138, RRID:CVCL_1785), NCI-H719 (ATCC, cat. CRL-5837, RRID:CVCL_1582), NCI-H196 (ATCC, cat. CRL-5823, RRID:CVCL_1509), NCI-H841 (ATCC, cat. CRL-5845, RRID:CVCL_1595), NCI-H1618 (ATCC, cat. CRL-5879, RRID:CVCL_1480), NCI-H1876 (ATCC, cat. CRL-5902, RRID:CVCL_1503), DMS 114 (ATCC, cat. CRL-2066; RRID:CVCL_1174), NCI-H211 (ATCC, cat. CRL-5824; RRID:CVCL_1529), and SW 1271 (ATCC, cat. CRL-2177, RRID:CVCL_1716). The small cell lung cancer cell line COR-L88 was purchased from Sigma-Aldrich (cat. 92031917-1VL, RRID:CVCL_1141). The non-small cell lung cancer cell lines NCI-H226 (RRID:CVCL_1544) and NCI-H322M (RRID:CVCL_1557) were established at the NCI and grown from internal seed stocks. Pooled donor human umbilical vein endothelial cells (HUVEC, Lonza, cat. CC-2519) and human mesenchymal stem cells (hMSC, Lonza, cat. PT-2501) were purchased from Lonza (Walkersville, MD).
Cell Culture. All cells were maintained in an incubator at 37 degrees C and 5% CO2 with 95% humidity. […]

Setting [1] is: compound alone, run of 12/16/2019.

“And” between values parts separate entries of the source, which are not always exact repeats. Identical values can stand only once. The source made the active and inactive calls. Rule for the calls: active = viability on the fitted dose curve at most 10% of control; inactive = the rest.

The viability, T/C is the result in the treated group divided by that in the control group, in per cent. As a reminder, the IC50 is the concentration at which inhibition is half-maximal.

Take `CC(C)n1c(=O)n(C)c2cnc3cc(F)c(-c4ccc(OCCCN5CCCCC5)nc4)cc3c21`: the viability, T/C (compound 0.0316 µM) was 82.1% and 106% and 81.7%; the viability, T/C (compound 0.1 µM) was 93.8% and 98.1% and 94.4%; the viability, T/C (compound 0.316 µM) was 116% and 107% and 117%; the viability, T/C (compound 1 µM) was 81.4% and 94.8% and 103%; the viability, T/C (compound 3.16 µM) was 85.7% and 142% and 110%; the viability, T/C (compound 10 µM) is 108% and 104% and 123%. Besides, the IC50 (curve of compound) was above 10 µM.
With `CC1COCCN1c1cc(-c2ccnn2C)c2ccnc(-c3ccn[nH]3)c2n1` (stereo unspecified), the viability, T/C is, setting by setting: (compound 0.0316 µM) 59.9% and 73.9% and 62.1%; (compound 0.1 µM) 60.1% and 43.6% and 50.1%; (compound 0.316 µM) 23.8% and 26.8% and 29.1%; (compound 1 µM) 11.2% and 14.3% and 10.5%; (compound 3.16 µM) 11.6% and 8.2% and 8.17%; (compound 10 µM) 13.3% and 9.71% and 10.8%. Moreover, the IC50 (curve of compound) is 0.137 µM and 0.0804 µM and 0.106 µM.
For the compound `CC[C@@]1(O)C(=O)OCc2c1cc1n(c2=O)Cc2cc3c(CN(C)C)c(O)ccc3nc2-1`, the viability, T/C runs as follows: (compound 0.003 µM) 44.5% [middle of 10 runs]; (compound 0.00949 µM) 6.14% [middle of 10 runs]; (compound 0.03 µM) 5.56% [middle of 10 runs]; (compound 0.0949 µM) 6.96% [middle of 10 runs]; (compound 0.3 µM) 7.47% [middle of 10 runs]. For the same compound, the half-inhibitory concentration (IC50) reads like this: (compound alone, run of 11/07/2019) < 0.003 µM and 0.00317 µM; under setting [1], 0.00367 µM and 0.00331 µM and < 0.003 µM.
As to `CNCc1ccc(-c2cc(-c3nc(-c4ccc(S(=O)(=O)C(C)C)cc4)cnc3N)on2)cc1`, the viability, T/C (compound 0.00949 µM) was 96.3% and 108% and 109%; the viability, T/C (compound 0.03 µM) is 103% (2×) and 107%; the viability, T/C (compound 0.0949 µM) was 57.4% and 81.5% and 93.3%; the viability, T/C (compound 0.3 µM) was 41.9% and 37.8% and 43.2%; the viability, T/C (compound 0.949 µM) was 9.72% and 6.55% and 13.6%. Also, under “curve of compound”, the half-maximal inhibitory concentration (IC50) is 0.158 µM and 0.216 µM and 0.264 µM.
On to `COc1cc(C)[nH]c(=O)c1CN1CCc2c(Cl)cc(C(OC)C3COC3)c(Cl)c2C1=O` (stereo unspecified), for which the viability, T/C is 100% and 103% and 101% (compound 0.0316 µM); 102% and 75.5% and 111% (compound 0.1 µM); 108% (compound 0.316 µM); 109% and 114% (2×) (compound 1 µM); 102% and 113% and 106% (compound 3.16 µM); 114% and 125% and 109% (compound 10 µM). Besides, the IC50 (curve of compound) is above 10 µM.
Turning to `COc1cc2c(cc1O)CCNC21CSC2c3c(OC(C)=O)c(C)c4c(c3C(COC1=O)N1C(O)C3Cc5cc(C)c(OC)c(O)c5C(C21)N3C)OCO4` (stereo unspecified), the viability, T/C runs as follows: (compound 94.9 pM) 36.8% [middle of 10 runs]; (compound 0.0003 µM) 8.36% [middle of 10 runs]; (compound 0.000949 µM) 7.96% [middle of 10 runs]; (compound 0.003 µM) 0.83% [middle of 9 runs]. Besides, the IC50 under setting [1] was 0.0663 nM [middle of 10 runs].
Take `COc1ccc([C@@H](O)c2cc(-c3ncnc4cc(N5CCOCC5)ccc34)c(F)cc2Cl)nn1`: the viability, T/C by setting is: (compound 0.0316 µM) 103% and 90.6% and 75%; (compound 0.1 µM) 109% and 83.6% and 83.3%; (compound 0.316 µM) 79.3% and 76.5% and 84.2%; (compound 1 µM) 65.6% and 58.1% and 69%; (compound 3.16 µM) 47.3% and 57.3% and 87.8%; (compound 10 µM) 15.5% and 53.7% and 58.8%. The concentration for half-maximal inhibition (IC50) (curve of compound) is 2.36 µM and > 10 µM.
Turning to `Cc1cc(C)c(CNC(=O)c2cc(-c3ccc(CN4CCOCC4)cc3)cc3c2cnn3C2CCCC2)c(=O)[nH]1`, the viability, T/C was 80.8% and 102% and 115% (compound 0.0316 µM); 83.4% and 99.2% and 117% (compound 0.1 µM); 84.8% and 97.1% and 111% (compound 0.316 µM); 79.3% and 108% and 121% (compound 1 µM); 114% and 92.6% and 103% (compound 3.16 µM); 77.5% and 87.8% and 72.1% (compound 10 µM). Under “curve of compound”, the IC50 is above 10 µM.
As to `Cc1sc2c(c1C)C(c1ccc(Cl)cc1)=NC(CC(=O)Nc1ccc(O)cc1)c1nnc(C)n1-2` (stereo unspecified), the viability, T/C (compound 0.00949 µM) was 95.3% and 98.3% and 94.6%; the viability, T/C (compound 0.03 µM) was 95.8% and 95.1% and 102%; the viability, T/C (compound 0.0949 µM) was 47.7% and 63.8% and 60.6%; the viability, T/C (compound 0.3 µM) is 22.9% and 31% and 24.5%; the viability, T/C (compound 0.949 µM) is 4.99% and 4.88% and 4.46%; the viability, T/C (compound 3 µM) was 3.39% and 2.12% and 2.52%. The IC50 (curve of compound) was 0.104 µM and 0.156 µM and 0.14 µM.
For the compound `Cn1ncnc1[C@H]1c2n[nH]c(=O)c3cc(F)cc(c23)N[C@@H]1c1ccc(F)cc1`, the viability, T/C was 14.8% and 59.6% and 24.1% (compound 0.00949 µM); 8.09% and 8.06% and 12.8% (compound 0.03 µM); 6.33% and 7.52% and 10% (compound 0.0949 µM); 6.84% and 6.92% and 9.12% (compound 0.3 µM); 5.82% and 8.51% and 7.74% (compound 0.949 µM); 6.37% and 7.94% and 7.04% (compound 3 µM). For the same compound, the 50% inhibitory concentration (IC50) (curve of compound) is < 0.00949 µM and 0.0118 µM.
As to `O=C(c1cc(Cc2n[nH]c(=O)c3ccccc23)ccc1F)N1CCN(C(=O)C2CC2)CC1`, the viability, T/C runs as follows: (compound 0.0949 µM) 90.1% and 105% and 85.6%; (compound 0.3 µM) 61.4% and 93.6% and 95.1%; (compound 0.949 µM) 71.1% and 82% and 81.4%; (compound 3 µM) 51.2% and 34.2% and 52.1%; (compound 9.49 µM) 30.8% and 7.1% and 16.9%. Under “curve of compound”, the half-inhibitory concentration (IC50) is 3.09 µM and 2.03 µM and 3.15 µM.
As to `[2H]c1nc(C)nc([2H])c1-c1cc(NC[C@@H](C)c2cccc3c(C(=O)NC)ccnc23)ncn1`, the viability, T/C was 94% and 100% and 109% (compound 0.0316 µM); 99.8% and 100% and 112% (compound 0.1 µM); 91.7% and 123% (compound 0.316 µM); 88.7% and 104% and 94.6% (compound 1 µM); 71.9% and 105% and 111% (compound 3.16 µM); 99.7% and 92.6% and 95.8% (compound 10 µM). Also, the result (compound 0.316 µM) was inactive. Moreover, the half-maximal inhibitory concentration (IC50) (curve of compound) is above 10 µM.

(Values after PubChem BioAssay AID1845212 (Molecular Pharmacology Branch, DTP, NCI, 2023).)
